Measurements: publication PMC9653409, “Generative deep learning enables the discovery of a potent and selective RIPK1 inhibitor” (Nature Communications, 2022)
Like-named read-outs stand apart in the source and are kept apart here.

Tests used:
Assay in all cases: Kinase inhibitory activity profiling of RI-962@10 µM (406 kinases, Eurofins)
Format in all cases: biochemical
[1] = biological target: panel of human kinases (kinase named in endpoint) (Homo sapiens, UniProt O00418); details: 10 µM; read-out: Activity (%), eEF-2K(h)
Outline: (§1)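 Radiometric filter-binding kinase assays: enzyme preincubated 15 min with compound in 8 mM MOPS pH 7.0, 0.2 mM EDTA, 250 μM peptide substrate, 10 mM magnesium acetate, 10 μM [γ-33P]-ATP. Reaction started with Mg/ATP, run 40 min at room temperature, stopped with phosphoric acid; 33P incorporation read by scintillation counting. Other kinases by similar protocols.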

[2] = biological target: panel of human kinases (kinase named in endpoint) (Homo sapiens, UniProt Q9BYP7); details: 10 µM; read-out: Activity (%), WNK3(h)
Outline: as §1

[3] = biological target: panel of human kinases (kinase named in endpoint) (Homo sapiens, UniProt P41240); details: 10 µM; read-out: Activity (%), CSK(h)
Sequence of panel of human kinases (kinase named in endpoint) (Homo sapiens, UniProt P41240) (P41240 whole entry): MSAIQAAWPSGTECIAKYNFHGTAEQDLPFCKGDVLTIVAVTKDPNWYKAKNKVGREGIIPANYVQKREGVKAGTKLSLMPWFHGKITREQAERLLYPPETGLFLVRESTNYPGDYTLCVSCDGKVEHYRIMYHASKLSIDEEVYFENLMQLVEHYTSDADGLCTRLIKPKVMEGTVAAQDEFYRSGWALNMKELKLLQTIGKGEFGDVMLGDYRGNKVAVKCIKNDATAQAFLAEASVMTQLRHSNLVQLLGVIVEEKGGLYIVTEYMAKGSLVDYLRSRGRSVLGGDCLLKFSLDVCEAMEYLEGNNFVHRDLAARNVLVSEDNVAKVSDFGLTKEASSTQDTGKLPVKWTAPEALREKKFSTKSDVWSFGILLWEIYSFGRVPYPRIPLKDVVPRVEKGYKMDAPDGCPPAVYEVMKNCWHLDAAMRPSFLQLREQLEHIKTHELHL
Outline: as §1

[4] = biological target: panel of human kinases (kinase named in endpoint) (Homo sapiens, UniProt P37173); details: 10 µM; read-out: Activity (%), TGFBR2(h)
Sequence of panel of human kinases (kinase named in endpoint) (Homo sapiens, UniProt P37173) (P37173 23-567): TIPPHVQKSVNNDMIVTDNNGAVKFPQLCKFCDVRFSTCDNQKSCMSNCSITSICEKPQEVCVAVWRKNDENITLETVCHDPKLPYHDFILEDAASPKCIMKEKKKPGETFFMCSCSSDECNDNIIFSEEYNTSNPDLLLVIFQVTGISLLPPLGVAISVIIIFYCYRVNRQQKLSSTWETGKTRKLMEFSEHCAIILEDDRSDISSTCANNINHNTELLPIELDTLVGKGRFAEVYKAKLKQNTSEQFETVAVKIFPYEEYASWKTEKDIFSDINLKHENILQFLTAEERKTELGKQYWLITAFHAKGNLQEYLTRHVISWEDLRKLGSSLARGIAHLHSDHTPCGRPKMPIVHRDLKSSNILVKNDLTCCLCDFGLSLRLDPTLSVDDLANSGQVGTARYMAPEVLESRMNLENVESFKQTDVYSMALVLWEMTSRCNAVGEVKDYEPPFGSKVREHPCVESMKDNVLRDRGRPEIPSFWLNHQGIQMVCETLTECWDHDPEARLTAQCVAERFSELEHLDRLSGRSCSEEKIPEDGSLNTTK
Outline: as §1

[5] = biological target: panel of human kinases (kinase named in endpoint) (Homo sapiens, UniProt P23458); details: 10 µM; read-out: Activity (%), JAK1(h)
Outline: as §1

[6] = biological target: panel of human kinases (kinase named in endpoint) (Homo sapiens, UniProt P08631); details: 10 µM
Sequence of panel of human kinases (kinase named in endpoint) (Homo sapiens, UniProt P08631) (P08631 whole entry): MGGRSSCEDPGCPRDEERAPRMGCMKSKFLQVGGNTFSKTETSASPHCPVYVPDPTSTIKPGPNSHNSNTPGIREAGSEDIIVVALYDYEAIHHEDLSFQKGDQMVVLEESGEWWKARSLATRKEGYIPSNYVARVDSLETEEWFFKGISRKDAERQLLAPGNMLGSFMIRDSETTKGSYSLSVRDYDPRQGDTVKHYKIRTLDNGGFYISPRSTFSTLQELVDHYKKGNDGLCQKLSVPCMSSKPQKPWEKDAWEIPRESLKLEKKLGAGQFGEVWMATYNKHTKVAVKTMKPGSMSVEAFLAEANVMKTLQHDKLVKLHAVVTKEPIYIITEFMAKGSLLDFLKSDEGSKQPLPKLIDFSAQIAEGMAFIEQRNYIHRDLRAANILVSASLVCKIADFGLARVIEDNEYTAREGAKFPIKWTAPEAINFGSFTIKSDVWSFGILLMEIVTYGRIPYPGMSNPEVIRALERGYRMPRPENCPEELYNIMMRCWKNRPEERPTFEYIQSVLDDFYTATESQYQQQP
Outline: as §1

[7] = biological target: panel of human kinases (kinase named in endpoint) (Homo sapiens, UniProt Q86Y07); details: 10 µM; read-out: Activity (%), VRK2(h)
Outline: as §1

[8] = biological target: panel of human kinases (kinase named in endpoint) (Homo sapiens, UniProt Q04771); details: 10 µM; read-out: Activity (%), ALK2(h)
Outline: as §1

[9] = biological target: panel of human kinases (kinase named in endpoint) (Homo sapiens, UniProt Q05397); details: 10 µM; read-out: Activity (%), FAK(h)
Outline: as §1

[10] = biological target: panel of human kinases (kinase named in endpoint) (Homo sapiens, UniProt P11362); details: 10 µM; read-out: Activity (%), FGFR1(h)
Outline: as §1

[11] = biological target: panel of human kinases (kinase named in endpoint) (Homo sapiens, UniProt Q16566); details: 10 µM; read-out: Activity (%), CaMKIV(h)
Outline: as §1

[12] = biological target: panel of human kinases (kinase named in endpoint) (Homo sapiens, UniProt P00533, T790M); details: 10 µM; read-out: Activity (%), EGFR(T790M)(h)
Outline: as §1

[13] = biological target: panel of human kinases (kinase named in endpoint) (Homo sapiens, UniProt P37023); details: 10 µM; read-out: Activity (%), ALK1(h)
Sequence of panel of human kinases (kinase named in endpoint) (Homo sapiens, UniProt P37023) (P37023 22-503): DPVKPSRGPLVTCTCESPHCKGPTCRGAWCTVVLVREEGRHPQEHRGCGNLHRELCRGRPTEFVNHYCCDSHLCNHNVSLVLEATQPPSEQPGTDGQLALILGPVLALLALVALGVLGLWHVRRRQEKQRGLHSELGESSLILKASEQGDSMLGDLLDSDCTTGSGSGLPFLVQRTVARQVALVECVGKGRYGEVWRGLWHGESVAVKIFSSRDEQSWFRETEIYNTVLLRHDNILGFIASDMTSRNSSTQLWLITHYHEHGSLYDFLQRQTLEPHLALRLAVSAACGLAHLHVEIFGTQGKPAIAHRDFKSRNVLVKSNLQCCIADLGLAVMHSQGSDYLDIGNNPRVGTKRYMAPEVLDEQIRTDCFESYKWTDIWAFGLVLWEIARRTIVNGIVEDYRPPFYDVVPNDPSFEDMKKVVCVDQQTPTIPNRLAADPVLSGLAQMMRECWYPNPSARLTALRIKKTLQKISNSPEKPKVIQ
Outline: as §1

[14] = biological target: panel of human kinases (kinase named in endpoint) (Homo sapiens, UniProt P54646); details: 10 µM; read-out: Activity (%), AMPKα2(h)
Outline: as §1

[15] = biological target: panel of human kinases (kinase named in endpoint) (Homo sapiens, UniProt P42681); details: 10 µM; read-out: Activity (%), Txk(h)
Outline: as §1

[16] = biological target: panel of human kinases (kinase named in endpoint) (Homo sapiens, UniProt P42684); details: 10 µM; read-out: Activity (%), Arg(h)
Outline: as §1

[17] = biological target: panel of human kinases (kinase named in endpoint) (Homo sapiens, UniProt Q8TD19); details: 10 µM; read-out: Activity (%), NEK9(h)
Sequence of panel of human kinases (kinase named in endpoint) (Homo sapiens, UniProt Q8TD19) (Q8TD19 whole entry): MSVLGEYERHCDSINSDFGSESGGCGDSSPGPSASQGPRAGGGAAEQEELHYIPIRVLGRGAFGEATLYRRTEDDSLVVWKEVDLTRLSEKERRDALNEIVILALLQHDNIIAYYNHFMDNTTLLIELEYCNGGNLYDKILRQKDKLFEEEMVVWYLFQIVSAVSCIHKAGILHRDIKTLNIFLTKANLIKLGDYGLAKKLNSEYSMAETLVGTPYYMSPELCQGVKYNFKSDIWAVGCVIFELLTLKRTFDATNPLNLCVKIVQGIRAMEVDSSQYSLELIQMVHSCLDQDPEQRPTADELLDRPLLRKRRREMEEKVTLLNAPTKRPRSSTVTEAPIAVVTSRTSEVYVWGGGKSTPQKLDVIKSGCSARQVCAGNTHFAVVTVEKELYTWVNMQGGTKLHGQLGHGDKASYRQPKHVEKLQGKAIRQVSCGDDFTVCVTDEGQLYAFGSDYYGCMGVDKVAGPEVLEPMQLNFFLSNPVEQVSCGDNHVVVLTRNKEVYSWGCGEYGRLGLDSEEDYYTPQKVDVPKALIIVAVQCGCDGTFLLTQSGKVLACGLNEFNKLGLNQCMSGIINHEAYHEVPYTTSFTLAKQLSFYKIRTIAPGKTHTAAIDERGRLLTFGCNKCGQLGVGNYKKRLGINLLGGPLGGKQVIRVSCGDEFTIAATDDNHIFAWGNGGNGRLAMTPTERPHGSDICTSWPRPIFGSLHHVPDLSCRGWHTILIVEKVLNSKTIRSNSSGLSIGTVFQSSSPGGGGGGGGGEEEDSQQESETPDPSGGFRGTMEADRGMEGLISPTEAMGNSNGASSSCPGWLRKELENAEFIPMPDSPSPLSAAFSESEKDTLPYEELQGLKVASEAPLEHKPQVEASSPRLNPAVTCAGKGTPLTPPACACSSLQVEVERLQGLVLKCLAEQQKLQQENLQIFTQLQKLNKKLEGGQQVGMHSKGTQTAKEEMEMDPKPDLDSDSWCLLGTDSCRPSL
Outline: as §1

[18] = biological target: panel of human kinases (kinase named in endpoint) (Homo sapiens, UniProt Q9UIK4); details: 10 µM; read-out: Activity (%), DAPK2(h)
Outline: as §1

[19] = biological target: panel of human kinases (kinase named in endpoint) (Homo sapiens, UniProt P21802); details: 10 µM; read-out: Activity (%), FGFR2(h)
Sequence of panel of human kinases (kinase named in endpoint) (Homo sapiens, UniProt P21802) (P21802 22-821): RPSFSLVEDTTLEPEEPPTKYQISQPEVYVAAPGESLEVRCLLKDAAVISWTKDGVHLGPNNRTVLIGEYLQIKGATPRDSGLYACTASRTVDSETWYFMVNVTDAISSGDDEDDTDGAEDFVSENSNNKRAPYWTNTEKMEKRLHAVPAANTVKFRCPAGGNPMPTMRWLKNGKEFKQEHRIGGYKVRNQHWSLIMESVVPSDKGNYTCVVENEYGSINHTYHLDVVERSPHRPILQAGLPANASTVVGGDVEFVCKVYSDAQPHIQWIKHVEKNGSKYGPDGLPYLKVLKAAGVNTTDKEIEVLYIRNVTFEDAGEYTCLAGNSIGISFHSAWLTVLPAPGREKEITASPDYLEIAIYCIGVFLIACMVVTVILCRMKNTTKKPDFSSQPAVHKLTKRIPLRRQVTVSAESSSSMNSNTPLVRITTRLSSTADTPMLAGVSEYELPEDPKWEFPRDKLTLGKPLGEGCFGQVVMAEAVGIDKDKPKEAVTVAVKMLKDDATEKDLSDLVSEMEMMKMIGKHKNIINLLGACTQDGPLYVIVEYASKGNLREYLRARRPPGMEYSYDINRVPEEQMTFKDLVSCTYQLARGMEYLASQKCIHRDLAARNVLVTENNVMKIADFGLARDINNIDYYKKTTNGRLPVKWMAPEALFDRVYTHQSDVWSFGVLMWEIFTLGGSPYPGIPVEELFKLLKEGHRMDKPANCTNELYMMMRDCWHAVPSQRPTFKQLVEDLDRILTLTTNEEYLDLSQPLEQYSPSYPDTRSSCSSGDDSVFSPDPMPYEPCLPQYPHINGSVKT
Outline: as §1

[20] = biological target: panel of human kinases (kinase named in endpoint) (Homo sapiens, UniProt P52564); details: 10 µM; read-out: Activity (%), MKK6(h)
Outline: as §1

[21] = biological target: panel of human kinases (kinase named in endpoint) (Homo sapiens, UniProt P42336, E542K); details: 10 µM; read-out: Activity (%), PI3(p110a(E542K)/p85a)
Sequence of panel of human kinases (kinase named in endpoint) (Homo sapiens, UniProt P42336, E542K) (P42336 whole entry E542K): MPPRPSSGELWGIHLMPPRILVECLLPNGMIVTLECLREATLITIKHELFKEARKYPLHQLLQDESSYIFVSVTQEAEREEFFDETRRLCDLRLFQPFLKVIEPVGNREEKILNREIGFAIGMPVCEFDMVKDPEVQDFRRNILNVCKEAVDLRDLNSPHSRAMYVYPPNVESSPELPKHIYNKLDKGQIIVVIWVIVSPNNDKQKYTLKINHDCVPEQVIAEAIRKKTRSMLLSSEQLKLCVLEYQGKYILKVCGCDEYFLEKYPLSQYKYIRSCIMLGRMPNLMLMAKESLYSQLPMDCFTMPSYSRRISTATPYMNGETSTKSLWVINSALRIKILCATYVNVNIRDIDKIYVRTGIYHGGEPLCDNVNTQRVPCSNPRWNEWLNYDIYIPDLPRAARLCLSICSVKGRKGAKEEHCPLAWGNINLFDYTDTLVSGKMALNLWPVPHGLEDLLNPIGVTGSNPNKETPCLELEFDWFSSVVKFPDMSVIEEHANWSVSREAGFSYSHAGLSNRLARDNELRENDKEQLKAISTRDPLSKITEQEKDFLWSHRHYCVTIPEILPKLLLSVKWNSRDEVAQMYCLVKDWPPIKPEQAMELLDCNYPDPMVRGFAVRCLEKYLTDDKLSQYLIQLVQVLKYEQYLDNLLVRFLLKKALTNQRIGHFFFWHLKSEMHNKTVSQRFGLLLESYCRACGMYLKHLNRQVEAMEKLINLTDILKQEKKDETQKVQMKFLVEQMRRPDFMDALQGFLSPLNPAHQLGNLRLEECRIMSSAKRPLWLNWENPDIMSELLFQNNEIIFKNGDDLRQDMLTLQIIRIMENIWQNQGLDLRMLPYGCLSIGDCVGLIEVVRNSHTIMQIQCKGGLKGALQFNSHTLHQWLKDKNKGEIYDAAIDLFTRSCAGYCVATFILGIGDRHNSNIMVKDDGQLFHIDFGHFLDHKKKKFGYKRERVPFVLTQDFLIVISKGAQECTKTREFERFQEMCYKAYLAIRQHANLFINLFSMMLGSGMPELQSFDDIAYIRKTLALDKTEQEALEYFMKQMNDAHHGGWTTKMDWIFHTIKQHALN
Outline: as §1

[22] = biological target: panel of human kinases (kinase named in endpoint) (Homo sapiens, UniProt P00533, L858R/T790M); details: 10 µM; read-out: Activity (%), EGFR(T790M,L858R)(h)
Outline: as §1

[23] = biological target: panel of human kinases (kinase named in endpoint) (Homo sapiens, UniProt P54764); details: 10 µM; read-out: Activity (%), EphA4(h)
Outline: as §1

[24] = biological target: panel of human kinases (kinase named in endpoint) (Homo sapiens, UniProt Q16513); details: 10 µM; read-out: Activity (%), PRK2(h)
Outline: as §1

[25] = biological target: panel of human kinases (kinase named in endpoint) (Homo sapiens, UniProt P21802, N549H); details: 10 µM; read-out: Activity (%), FGFR2(N549H)(h)
Sequence of panel of human kinases (kinase named in endpoint) (Homo sapiens, UniProt P21802, N549H) (P21802 22-821 N549H): as the sequence (P21802 22-821) above, with N528H counted along it
Outline: as §1

## CC(C)C(=O)Nc1nc2cc(-c3ccc4c(c3)c(C(=O)NC(C)c3ccccc3)cn4C)ccn2n1 (centres unmarked) [RI-962]
[1]
  activity at 10 µM: 112%
[2]
  activity at 10 µM: 75%
[3]
  activity at 10 µM: 76%
[4]
  activity at 10 µM: 94%
[5]
  activity at 10 µM: 85%
[6]; read-out: Activity (%), Hck(h)
  activity at 10 µM: 93%
[6]; read-out: Activity (%), Hck(h) activated
  activity at 10 µM: 97%
[7]
  activity at 10 µM: 89%
[8]
  activity at 10 µM: 104%
[9]
  activity at 10 µM: 108%
[10]
  activity at 10 µM: 81%
[11]
  activity at 10 µM: 77%
[12]
  activity at 10 µM: 119%
[13]
  activity at 10 µM: 94%
[14]
  activity at 10 µM: 89%
[15]
  activity at 10 µM: 94%
[16]
  activity at 10 µM: 106%
[17]
  activity at 10 µM: 85%
[18]
  activity at 10 µM: 104%
[19]
  activity at 10 µM: 107%
[20]
  activity at 10 µM: 97%
[21]
  activity at 10 µM: 97%
[22]
  activity at 10 µM: 85%
[23]
  activity at 10 µM: 77%
[24]
  activity at 10 µM: 101%
[25]
  activity at 10 µM: 100%
